Values quoted from earlier work in patent publication US8273721B2, “Combination treatment for bladder cancer” (Endo Pharmaceuticals Solutions Inc., priority 2008, dated 2012).

Compound | solubility in organic solvents (in words) (methylene chloride, ethanol, methanol and acetone) | solubility in water (in words) (water) | solubility in water (water)
(2S-cis)-2-[1,2,3,4,6,11-hexahydro-2,5,12-trihydroxy-7-methoxy-6,11-dioxo-4-[[2,3,6-trideoxy-3-[(trifluoroacetyl)amino]-α-L-lyxo-hexopyranosyl]oxyl]-2-naphthacenyl]-2-oxoethyl pentanoate [Valrubicin] | soluble | relatively insoluble | –
O=C(OC1CC2CCC(C1)[N+]21CCCC1)C(O)(c1ccccc1)c1ccccc1.[Cl-] (stereo not drawn) [trospium chloride, spiro[8-azoniabicyclo[3,2,1]octane-8,1′pyrrolidinium]-3-[(hydroxydiphenyl-acetyl)-oxy]chloride(1α, 3β, 5α)(9Cl)] | – | – | approximately 1 g/2 mL
